# Where two headings read alike, the source gives them in different places.
# Key:
# rgRSV224 virus = assay: Antiviral activity: rgRSV224 (GFP) replication in HeLa cells; assay type: cell-based, respiratory syncytial virus (RSV); settings: averaged data of several repeat experiments
# Outline: (§1)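 Over 3 days at 37 °C, compound titrations (4-fold steps, nine dilutions) were tested on HeLa cells infected with rgRSV224 (MOI = 1), inhibition of GFP signal giving EC50. In parallel plates, ATP content of HeLa cells after 3-day exposure defined CC50.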
# HeLa cells = assay: Cytotoxicity in HeLa cells (ATP content, ATPlite kit); assay type: cell-based
# Outline: as §1
# [1] = as above; assay type: cell-based; settings: human, TOX HELA CC50
# Outline: as §1
# [2] = read-out: RSV HELA EC50, HeLa cells, rgRSV224 MOI = 1, GFP expression three days post-virus exposure
# [3] = HeLa cells, rgRSV224 MOI = 1, GFP expression three days post-virus exposure, read-out: RSV HELA EC50
# [4] = HeLa cells, three days incubation, ATP content, averaged data of several repeat experiments, read-out: TOX HELA CC50
# [5] = human respiratory syncytial virus, HeLa, 72 h, read-out: RSV HELA EC50, HeLa cells, rgRSV224 MOI = 1, GFP expression three days post-virus exposure
SMILES,EC50 (rgRSV224 virus; [2]) [µM],"CC50 (HeLa cells; human, 3 days) [µM]",EC50 (rgRSV224 virus; [3]) [µM],CC50 (HeLa cells; [4]) [µM],further results
"Cc1cc2cc(C(=O)NC[C@](O)(c3cc(C(C)(C)O)c(F)c(-c4ccc(F)cc4)n3)C3(F)CC3)cc(OC3CC3)c2nn1 [compound 317, (-)Cyclopropoxy-N-(2-(5-Fluoro-6-(4-Fluorophenyl)-4-(2-Hydroxypropan-2-yl)Pyridin-2-yl)-2-(1-Fluorocyclopropyl)-2-Hydroxyethyl)-3-Methylcinnoline-6-Carboxamide]",0.00087,29,,,
"COc1cc(C(=O)NCC(O)(c2cc(C(C)(C)O)c(F)c(-c3ccc(F)c(F)c3)n2)C2CC2)cc2cc(C)nnc12 (single isomer, unassigned; (-)) [compound 256]",,,0.00019,33,
COc1cc(C(=O)NC[C@@](O)(c2nc(-c3ccc(F)cc3)c(F)c(C(C)(C)O)c2C)C2CC2)cc2cc(C)nnc12 [compound 245],,,0.0029,,CC50 (HeLa cells): 48 µM
"COc1cc(C(=O)NCC(O)(c2cc(C(C)(C)O)c(F)c(-c3ccc(F)cc3)n2)C(F)F)cc2cc(C)nnc12 (single isomer, unassigned; (-)) [compound 250, (-)-N-{3,3-Difluoro-2-[5-Fluoro-6-(4-Fluorophenyl)-4-(2-Hydroxypropan-2-yl)Pyridin-2-yl]-2-Hydroxypropyl}-8-Methoxy-3-Methylcinnoline-6-Carboxamide]",0.0014,40,,,
"COc1cc(C(=O)NCC(O)(c2cc(C(C)(C)O)c(Cl)c(-c3ccc(F)cc3)n2)C(C)C)cc2cc(C)nnc12 (single isomer, unassigned; (-)) [compound 231, (-)-N-{2-[5-Chloro-6-(4-Fluorophenyl)-4-(2-Hydroxypropan-2-yl)Pyridin-2-yl]-2-Hydroxy-3-Methylbutyl}-8-Methoxy-3-Methylcinnolme-6-Carboxamide]",,,0.00041,21,
"Cc1cc2cc(C(=O)NCC(O)(c3nc(-c4ccc(F)cc4)c(Cl)c(C(C)(C)O)c3F)C(F)(F)F)cc(OC3CC3)c2nn1 (single isomer, unassigned; (-)) [compound 263]",,,0.0027,47,
COc1cc(C(=O)NC[C@](O)(c2nc(-c3ccc(F)cc3)c(F)c(C(C)(C)O)c2C)C2CC2)cc2cc(C)nnc12 [compound 246],,,0.2,,CC50 (HeLa cells): 46 µM
"Cc1cc2cc(C(=O)NCC(O)(c3nc(-c4ccc(F)cc4)c(F)c(C(C)(C)O)c3F)C(F)(F)F)cc(OC3CC3)c2nn1 (single isomer, unassigned; (-)) [compound 262, (-)(Cyclopropyloxy)-N-{2-[3,5-Difluoro-6-(4-Fluorophenyl)-4-(2-Hydroxypropan-2-yl)Pyridin-2-yl]-3,3,3-Trifluoro-2-Hydroxypropyl}-3-Methylcinnoline-6-Carboxamide]",,,0.0019,45,
"COc1cc(C(=O)NCC(O)(c2cc(C(C)(C)O)c(F)c(-c3ccc(F)cc3)n2)C(F)F)cc2cc(C)cnc12 (single isomer, unassigned; (-)) [compound 204, (-)-N-{3,3-Difluoro-2-[5-Fluoro-6-(4-Fluorophenyl)-4-(2-Hydroxypropan-2-yl)Pyridin-2-yl]-2-Hydroxypropyl}-8-Methoxy-3-Methylquinoline-6-Carboxamide]",0.001,48,,,
"COc1cc(C(=O)NCC(O)(c2cc(C(C)(C)O)c(F)c(-c3ccc(C(F)(F)F)cc3)n2)C2CC2)cc2cc(C)nnc12 (single isomer, unassigned; (-)) [compound 253]",,,0.00025,13,
"COc1cc(C(=O)NCC(O)(c2cc(C(C)(C)O)c(F)c(-c3ccc(F)cc3)n2)C(F)F)cc2cc(C)c(F)nc12 (single isomer, unassigned; (-)) [compound 214, (-)-N-{3,3-Difluoro-2-[5-Fluoro-6-(4-Fluorophenyl)-4-(2-Hydroxypropan-2-yl)Pyridin-2-yl]-2-Hydroxypropyl}-2-Fluoro-8-Methoxy-3-Methylquinoline-6-Carboxamide]",0.0014,28,,,
"Cc1cc2cc(C(=O)NC[C@](O)(c3cc(C(C)(C)O)c(F)c(-c4ccc(F)cc4)n3)C3(F)CC3)cc(OC3CC3)c2nn1 [compound 335, (-)Cyclopropoxy-N-(2-(5-Fluoro-6-(4-Fluorophenyl)-4-(2-Hydroxypropan-2-yl)Pyridin-2-yl)-2-(1-Fluorocyclopropyl)-2-Hydroxyethyl)-3-Methylcinnoline-6-Carboxamide]",0.021,~14,,,
"COc1cc(C(=O)NCC(O)(c2nc(-c3ccc(F)cc3)c(Cl)c(C(C)(C)O)c2F)C(F)(F)F)cc2cc(C)nnc12 (single isomer, unassigned; (+)) [compound 248, (+)-N-{2-[5-Chloro-3-Fluoro-6-(4-Fluorophenyl)-4-(2-Hydroxypropan-2-yl)Pyridin-2-yl]-3,3,3-Trifluoro-2-Hydroxypropyl}-8-Methoxv-3-Methylcinnoline-6-Carboxamide]",,,0.5,41,
"COc1cc(C(=O)NCC(O)(c2cc(C(C)(C)NC(C)=O)c(F)c(-c3ccc(F)cc3)n2)C(F)(F)F)cc2cc(C)nnc12 (single isomer, unassigned; (-)) [compound 235, (-)-N-{2-[4-(2-Acetamidopropan-2-yl)-5-Fluoro-6-(4-Fluorophenyl)Pyridin-2-yl]-3,3,3-Trifluoro-2-Hydroxypropyl}-8-Methoxy-3-Methylcinnoline-6-Carboxamide]",,,,,EC50 (rgRSV224 virus; [5]): 0.00062 µM; CC50 at 3 days [1]: 25 µM
"COc1cc(C(=O)NC[C@@](O)(c2cc(C(C)(C)O)c(F)c(-c3ccc(F)cc3)n2)C(C)(F)F)cc2cc(C)nnc12 [compound 314, (+)-N-(3,3-difluoro-2-(5-fluoro-6-(4-fluorophenyl)-4-(2-hydroxypropan-2-yl)pyridin-2-yl)-2-hydroxybutyl)-8-methoxy-3-methylcinnoline-6-carboxamide]",,,,,EC50 (rgRSV224 virus; [5]): 0.168 µM; CC50 at 3 days [1]: 35 µM
"COc1cc(C(=O)NC[C@](O)(c2cc(C(C)(C)O)c(Cl)c(-c3ccc(F)cc3)n2)C2CC2)cc2cc(C(F)F)nnc12 [compound 268, N-{(-)[5-Chloro-6-(4-Fluorophenyl)-4-(2-Hydroxypropanyl)Pyridinyl]CyclopropylHydroxyethyl}-3-(Difluoromethyl)-8-Methoxycinnoline-6-Carboxamide]",,,,,EC50 (rgRSV224 virus; [5]): 0.00067 µM; CC50 at 3 days [1]: 18 µM
